The results in this text go back to US20030130200A1, “Small peptides and methods for treatment of asthma and inflammation” (Hisatek, LLC, priority 1997, published 2003).

The test system of this test is OVA-sensitized/challenged mice. As to the kind of experiment: OVA allergen-induced airway inflammation mouse model, 28-day protocol, HK-X i.n. before challenges on days 25, 26, 27. In kind it is in vivo, mouse (BALB/c). From the text: The above-described murine model reproduces key features of human asthma. Late-phase allergen-specific pulmonary disease was induced in normal BALB/c mice using ovalbumin (OVA) as allergen. One protocol includes immunization of mice with i.p. OVA on days 1 and 14, and intranasal (i.n.) administration of OVA on days 14, 25, 26. and 27.
In a mouse model of allergen-induced airway inflammation, the role of mast cell in airway eosinophil infiltration, mucus release, and hyper-responsiveness to methacholine was examined.
Materials were used as described above. Mice received an i.p. injection of 0.2 ml (100 ug) of OVA complexed with aluminum potassium sulfate (alum) on day 0 and 14. On days 14, 25, 26, and 27, mice were anesthetized with 0.2 ml i.p. of ketamine (0.44 mg/ml)/xylazine (6.3 mg/ml) in normal saline before receiving an intranasal (i.n.) dose of 100 ug OVA in 0.05 ml normal saline on days 25, 26, and 27. Lung tissue was obtained 24 hours after the last i.n. challenge on day 28. The control group received normal saline with alum i.p. on days 0 and 14 and normal saline without alum i.n. on days 14, 25, 26, and 27. To assess the effect of HK-X inhibition on OVA induced asthma, HK-X (10 ug/ml) was given i.n. 30 minutes before each i.n. challenge on days 25, 26, and 27.
After tying off the left lung at the mainstem bronchus, the right lung was […] three times with 0.4 ml of normal saline. Bronchoalveolar lavage (BAL) fluid cells from a 0.05 ml aliquot of the pooled sample wee counted using a hemocytometer and the remaining fluid centrifuged at 4° C. for 10 minutes at 200 g. After resuspension of the cell pellet in normal saline containing 10% BSA, BAL cell smears were made on glass slides. To stain eosinophils, dried slides were stained with Discombe's diluting fluid (0.05% aqueous eosin and 5% (v/v) acetone in distilled water) for 5-8 minutes, rinsed with water for 0.5 minutes and counterstained with […] for 2 minutes
Following BAL, the trachea and left lung (upper and lower lobes) were obtained and fixed in 10% buffered formalin solution at 20° C. forlS hours. After the tissues were processed and embeded in paraffin, the tissues were cut into 5 μm sections and stained with Discombe's solution and counterstained with methylene blue as described above or stained with Hematoxylin and eosin. The eosinophil number per unit airway area (2200 μm^2) was determined by morphometry as previously described. Airway mucus was identified by a variety of staining methods, i.e., methylene blue, Hematoxylin and eosin, mucicarmine, toluidine blue, alcian blue, and alcian blue/periodic acid Schiff (PAS) reaction. […] The degree of mucus plugging of the airways (0.5-0.8 mm in diameter) also was assessed by morphometry. […]

Entries after “also recorded” stand apart in the source; their conditions may differ. Where no end group is shown, it is not given here. The star is where a group is joined. For = O=C*

As for “f-Met-Leu-Phe-Phe (For-MLFF) [Example 9]”, the “Cellular infiltration during asthmatic attack (histopathology)” value (10 μg HK-X intranasally 30 minutes prior to challenge, FIG. 9) is listed as “reduces the cellular infiltration”. Further, where the note is “OVA sensitized/challenged mice, FIGS. 8A, 9A, 10A”, the “Eosinophil influx into the lung tissue and BAL fluid” value was “markedly reduced”. The “Airway mucus release / secretion” value (OVA sensitized/challenged mice, histopathology FIGS. 8A, 9A, 10A, listed as HK-X) was “prevented airway mucus release; also recorded: blocked the airway mucus release; also recorded: prevents the airway mucus secretion; also recorded: reduces the mucus secretion in airways”. Also, under “p<0.006 compared to OVA without HK-X, FIG. 11”, the “Reduction of eosinophil influx into the lung interstitium (morphometric analysis)” value amounted to 90%.
